Experimental data: patent US20170049843A1, “Hepatocyte Growth Factor Mimics as Therapeutic Agents” (WASHINGTON STATE UNIVERSITY, priority 2011, published 2017)
Values joined by “and” are separate entries in the source; they are usually repeats but may differ in a detail not shown here. Equal values may be shown once. Where a SMILES comes first, the peptide text is derived from it. [ ]: non-standard residue; d: D form. The star is where a group is joined. Nle = CCCC[C@H](N)C(=O)O; Hexanoyl = CCCCCC(=O)*; Ahx = NCCCCCC(=O)O

Tests used:
Assay type in all cases: cell-based, rat
hippocampal neurons [1] = experiment: Spinogenesis in mRFP-β-actin transfected dissociated hippocampal neurons; details: 5 days; for spine numbers per 50 μm dendrite length: biologically active doses, printed as 10^−13 M, control 17.4
Protocol: Hippocampal neurons ([…] cells per square cm) were cultured from P1 Sprague Dawley rats on plates coated with poly-L-lysine from Sigma (St. Louis, Mo.; molecular weight 300,000). Hippocampal neurons were maintained in Neurobasal A media from Invitrogen (Carlsbad, Calif.) supplemented with B27 from Invitrogen, 0.5 mM L-glutamine, and […] cytosine-D-arabinofuranoside from Sigma added at 2 days in vitro. Hippocampal neurons were then cultured a further 3-7 days, at which time they were either transfected or treated with various pharmacological reagents as described in (Wayman, Davare et al. 2008).
(§1) Neurons were transfected with mRFP-β-actin on day in vitro 6 (DIV6) using LipofectAMINE™ 2000 (Invitrogen) according to the manufacturer's protocol. This protocol yielded the desired 3-5% transfection efficiency thus enabling the visualization of individual neurons. Higher efficiencies obscured the dendritic arbor of individual neurons. Expression of fluorescently tagged actin allowed clear visualization of dendritic spines, as dendritic spines are enriched in actin. On DIV7 the cells were treated with vehicle (H20) or peptides (as described in the text) added to media. On DIV12 the neurons were fixed (4% paraformaldehyde, 3% sucrose, 60 mM PIPES, 25 mM HEPES, 5 mM EGTA, 1 mM MgCl2, pH 7.4) for 20 min at room temperature and mounted. Slides were dried for at least 20 hours at 4° C. and fluorescent images were obtained with Slidebook 4.2 Digital Microscopy Software driving an Olympus IX81 inverted confocal microscope with a 60× oil immersion lens, NA 1.4 and resolution 0.280 μm Dendritic spine density was measured on primary and secondary dendrites at a distance of at least 150 μm from the soma. Five 50 μm long segments of dendrite from at least 10 neurons per data point were analyzed for each data point reported. Each experiment was repeated at least three times using independent culture preparations. Dendrite length was determined using the National Institutes of Health's Image J 1.41o program (NIH, Bethesda, Md.) and the neurite tracing program Neuron J (Meijering, Jacob et al. 2004) Spines were manually counted.
Hippocampal neurons (2×10^5 cells per square centimeter) were cultured from P1-2 Sprague Dawley rats on plates coated with poly-L-lysine from Sigma (St. Louis, Mo.; molecular weight 300,000). Hippocampal neurons were maintained in Neurobasal A media from Invitrogen (Carlsbad, Calif.) supplemented with B27 from Invitrogen, 0.5 mM L-glutamine, and […] cytosine-D-arabinofuranoside from Sigma added at 2 days in vitro. Hippocampal neurons were then cultured a further 3-7 days, at which time they were either transfected or treated with various pharmacological reagents as described in the text or figure legends.

hippocampal neurons [2] = experiment: Whole-cell recordings of mEPSCs in dissociated hippocampal neurons; parameters: mean mEPSC frequency: unit not given beside the values; details: 5 days
CA1 hippocampal neurons = experiment: Spinogenesis in organotypic hippocampal slice cultures (CA1 neurons); details: for mean spine numbers per 50 μm dendrite length, CA1 neurons: 10^−12 M Dihexa or 10 ng/ml HGF, 48 hours, control 6.1; for spines per 50 μm dendrite length, CA1 neurons: 10-12 M, 2 day treatment, control 7
Protocol: (§2) Hippocampi from P4 Sprague Dawley rats were cultured as previously described (Wayman, Impey et al. 2006). Briefly, 400 μm slices were cultured on (Milipore, Billerica, Mass.) for 3 days after which they were biolistically transfected with tomato fluorescent protein (TFP) using a Helios Gen Gun (BioRad, Hercules, Calif.), according to the manufacturer's protocol, to visualize dendritic arbors. Following a 24 hour recovery period slices were stimulated with vehicle (H2O), 1 pM Nle1-AngIV or Dihexa for 2 days. Slices were fixed and mounted. Hippocampal CA1 neuronal processes were imaged and measured as described above.
as §2, with “Gene” for “Gen”, “with” for “with vehicle (H2O),”

c-Met receptor = experiment: Spinogenesis after c-Met knock-down with shRNA; details: 10 ng/ml HGF or 10^−12 M analog
Text: as §1
A target sequence for c-Met was designed using RNAi central design program (see the website located at cancan.cshl.edu/). […]. The shRNA was transfected into cells using the lipofectamine method described above. Verification of receptor knockdown was done by creating a c-Met-6-Myc tagged gene product using the Gateway cloning system (Invitrogen). The Met protein coding sequence was cloned from rat whole brain cDNA using primers obtained from Integrated DNA Technologies, Inc. The amplified product was gel purified and a band corresponding to […] band excised and cloned into a PCAGGS-6-Myc destination vector (Gateway).
To irrefutably confirm that the AngIV analogues act via the HGF/c-met system an shRNA for c-Met was employed to knock-down the receptor. Dissociated hippocampal neurons were transfected with mRFP-β-actin and shMet RNA and receptor knock-down was allowed to take place for 48 hours prior to stimulating with 0.5 μg (per well) HGF (10 ng/ml), Dihexa or Nle1-AngIV (both at 10^−12 M). Longer exposure appeared to be detrimental or toxic to the neurons. Effective c-Met receptor knock-down was verified by transfecting human embryonic kidney (HEK) cells with (0.1 μg) 6-Myc-tagged c-Met, (0.1 μg)shMet or mRFP-β-actin alone. Successful knockdown was confirmed by immunoblotting for Myc tagged c-met using an anti-Myc antibody (FIG. 19).

[3] = 10^−12 M Dihexa or 10 ng/ml HGF, control 3.55±0.60
[4] = Hinge 10^−12 M, HGF 10 ng/ml, Dihexa 10^−12 M, alone or combined, vehicle 5.31±0.35
[5] = neurons transfected with mRFP-β-actin alone, 48 hours, control 13.2
[6] = neurons transfected with mRFP-β-actin and shMet, control 13.5

Row | Compound | mean spine numbers per 50 μm dendrite length (hippocampal neurons [1]; HGF 5 ng/ml) | mean spine numbers per 50 μm dendrite length (hippocampal neurons [1]; HGF 10 ng/ml) | mean spine numbers per 50 μm dendrite length (hippocampal neurons [1]; HGF 20 ng/ml) | mean mEPSC frequency (hippocampal neurons [2]; [3]) | mean mEPSC frequency (hippocampal neurons [2]; [4]) | mean spine numbers per 50 μm dendrite length, CA1 neurons (CA1 hippocampal neurons) | mean spine numbers per 50 μm dendrite length (c-Met receptor; [5]) | mean spine numbers per 50 μm dendrite length (c-Met receptor; [6]) | spine numbers per 50 μm dendrite length (hippocampal neurons [1]) | spines per 50 μm dendrite length, CA1 neurons (CA1 hippocampal neurons) | mean frequency of AMPA-mediated mEPSCs (hippocampal neurons [2]; 10-12 M, vehicle 3.06±0.23 Hz)
1 | HGF: recombinant hepatocyte growth factor (R&D Systems), ligand of c-Met | 24.7 | 27.5 and 33 and 29.3 | 27.0 | 7.09±0.53 | 9.66±0.20 | 18.5 | 20.6 | 12.4 | – | – | –
2 | CCCCCC(=O)N[C@@H](Cc1ccc(O)cc1)C(=O)N[C@H](C(=O)NCCCCCC(N)=O)[C@@H](C)CC [Dihexa, N-hexanoic-Tyr-Ile-(6)-aminohexanoic amide] (Hexanoyl-Tyr-Ile-[Ahx]-NH2) | – | – | – | 6.75±0.99 | 8.25±0.56 | 15.0 | 21.8 | 12.0 | 26.4 | 11 spines per 50 μm dendrite length | –
3 | CCCC[C@H](N)C(=O)N[C@@H](Cc1ccc(O)cc1)C(=O)N[C@H](C(=O)N[C@@H](Cc1c[nH]cn1)C(=O)N1CCC[C@H]1C(=O)N[C@@H](Cc1ccccc1)C(=O)O)[C@@H](C)CC [Nle1-AngIV, reference compound] (H-[Nle]YIHPF-OH; N-terminus and C-terminus assumed) | – | – | – | – | – | – | 20.0 | 12.1 | 29.8 | 11 spines per 50 μm dendrite length | 5.27±0.43 Hz
